Test results from US20070020329A1, “Methods of formulating linezolid” (priority 2005, published 2007).

Experiment: Polymorphic stability of solid linezolid Form IV, alone and in contact with solvents
Format: physicochemical
Excerpt: As a consequence, pharmaceutical compositions comprising linezolid Form IV substantially free of linezolid Form II are difficult to prepare.

- conversion of Form IV to Form II (in words) (contacted with solvents, in particular ethanol): readily transforms to linezolid Form II
- conversion of solid Form IV to Form II (in words) (solid, at least 3 months at temperatures between 25 and 40° C.): does not convert to linezolid Form II
Structure (SMILES): CC(=O)NC[C@H]1CN(c2ccc(N3CCOCC3)c(F)c2)C(=O)O1 [linezolid Form IV, N-[[(5S)-3-[3-fluoro-4-(4-morpholinyl)phenyl]-2-oxo-5-oxazolidinyl]methyl]acetamide]
